Source: PMC3690672 (European journal of nuclear medicine and molecular imaging, 2009)
“And” between values parts separate entries of the source, which are not always exact repeats. Identical values can stand only once. Counter-ions that a name gives are not always drawn. Like-named read-outs stand apart in the source and are kept apart here.

Columns and labels:
[1] = target: T1, P-glycoprotein (P-gp) at the blood-brain barrier (Rattus norvegicus, UniProt Q6PSM0); experiment: in vivo
[2] = test system: P-glycoprotein (P-gp) at the blood-brain barrier; type: in vivo, rat; settings: tariquidar 15 mg/kg or elacridar 5 mg/kg at 60 min after radiotracer injection
[3] = Tariquidar or elacridar concentrations in plasma and brain by LC/MS; type: in vivo; settings: rat, 5 mg/kg; for concentration at 180 min: intravenous
[4] = target: T1, P-glycoprotein (P-gp) at the blood-brain barrier; settings: for DV (Logan) of VPM / DV of VPM (2T4K model) / K1 of VPM (2T4K model) / k2 of VPM (2T4K model) / k3 of VPM (2T4K model) / k4 of VPM (2T4K model): whole brain, PET 120 min after, mean±SD
[5] = test system: multidrug resistance-associated proteins (MRPs), such as MRP1; settings: cited from earlier work
[6] = Hill fit of whole-brain DV vs inhibitor dose

T1 sequence (Q6PSM0 1-1272): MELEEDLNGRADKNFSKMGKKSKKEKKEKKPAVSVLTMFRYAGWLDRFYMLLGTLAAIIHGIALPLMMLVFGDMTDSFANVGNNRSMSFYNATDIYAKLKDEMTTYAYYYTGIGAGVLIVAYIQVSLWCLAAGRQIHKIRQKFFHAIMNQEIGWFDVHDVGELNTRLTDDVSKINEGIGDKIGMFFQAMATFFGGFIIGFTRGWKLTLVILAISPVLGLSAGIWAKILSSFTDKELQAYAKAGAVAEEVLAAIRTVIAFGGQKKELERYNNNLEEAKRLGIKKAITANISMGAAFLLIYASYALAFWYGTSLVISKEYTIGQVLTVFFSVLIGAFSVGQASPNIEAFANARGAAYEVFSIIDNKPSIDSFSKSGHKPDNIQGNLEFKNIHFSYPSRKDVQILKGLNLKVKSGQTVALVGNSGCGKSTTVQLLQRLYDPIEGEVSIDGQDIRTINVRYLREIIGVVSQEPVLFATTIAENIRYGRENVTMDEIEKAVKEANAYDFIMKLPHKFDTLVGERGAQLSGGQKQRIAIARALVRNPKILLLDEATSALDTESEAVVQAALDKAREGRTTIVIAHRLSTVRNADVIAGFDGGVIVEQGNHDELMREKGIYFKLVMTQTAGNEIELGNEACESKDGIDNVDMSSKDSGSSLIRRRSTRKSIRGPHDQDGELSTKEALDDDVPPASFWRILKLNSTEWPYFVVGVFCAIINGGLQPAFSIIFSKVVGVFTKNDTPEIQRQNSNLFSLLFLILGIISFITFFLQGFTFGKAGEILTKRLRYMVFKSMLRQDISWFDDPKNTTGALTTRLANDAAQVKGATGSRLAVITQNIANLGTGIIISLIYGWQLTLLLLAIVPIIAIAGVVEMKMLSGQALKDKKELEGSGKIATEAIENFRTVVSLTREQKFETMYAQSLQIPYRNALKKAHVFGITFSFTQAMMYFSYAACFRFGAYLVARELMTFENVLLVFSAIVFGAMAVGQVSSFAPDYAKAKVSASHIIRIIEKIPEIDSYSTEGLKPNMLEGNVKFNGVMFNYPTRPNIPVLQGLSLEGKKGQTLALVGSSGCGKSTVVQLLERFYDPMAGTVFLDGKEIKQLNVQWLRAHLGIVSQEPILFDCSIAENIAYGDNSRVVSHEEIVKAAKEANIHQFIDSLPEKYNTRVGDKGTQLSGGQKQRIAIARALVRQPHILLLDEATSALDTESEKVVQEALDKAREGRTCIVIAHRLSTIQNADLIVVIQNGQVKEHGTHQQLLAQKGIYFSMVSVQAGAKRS

COc1cc2c(cc1OC)CN(CCc1ccc(NC(=O)c3cccc4c(=O)c5cccc(OC)c5[nH]c34)cc1)CC2 [elacridar, elacridar hydrochloride]
EC50 at 180 min [1]: 0.115 ± 0.0222 µg/mL
ED50 at 120 min ([1]; Sprague-Dawley, iv): 1.2 ± 0.1 mg/kg
Time of peak VPM brain uptake (maximum effect) after inhibitor injection [2]: 30 ± 5 min and 30 min
concentration at 180 min ([3]; brain): 5190 ± 1420 ng/mL
Kp at 180 min ([3]; brain, iv): 16.8 ± 5.8
concentration at 180 min ([3]; plasma): 316 ± 61 ng/mL
DVmax (maximum effect) [4, 6]: 11.4±0.7 ml·ml^−1
Hill factor n [4, 6]: 5.2±2.8
Maximum increase in VPM brain distribution (DV) over baseline ([4]; at maximum effective doses, rat brain): up to 11 fold
Whole-brain DV increase (factor) as compared to baseline scans ([4]; inhibitor 0.3 mg/kg): 1.0±0.6
Whole-brain DV increase (factor) as compared to baseline scans ([4]; inhibitor 1 mg/kg): 3.5±1.5
Whole-brain DV increase (factor) as compared to baseline scans ([4]; inhibitor 2 mg/kg): 9.4±1.5
Whole-brain DV increase (factor) as compared to baseline scans ([4]; inhibitor 5 mg/kg): 8.9±1.4
Whole-brain DV increase (factor) as compared to baseline scans ([4]; inhibitor 7.5 mg/kg): 11.3±0.2
DV (Logan) of VPM ([4]; inhibitor 0.3 mg/kg i.v.): 1.22±0.51 (2.9) ml·ml^−1
DV of VPM (2T4K model) ([4]; inhibitor 0.3 mg/kg i.v.): 1.28±0.54 (3.1) ml·ml^−1
K1 of VPM (2T4K model) ([4]; inhibitor 0.3 mg/kg i.v.): 0.13±0.10 (16.5) ml·ml^−1·min^−1
k2 of VPM (2T4K model) ([4]; inhibitor 0.3 mg/kg i.v.): 0.29±0.06 (36.5) min^−1
k3 of VPM (2T4K model) ([4]; inhibitor 0.3 mg/kg i.v.): 0.14±0.02 (41.4) min^−1
k4 of VPM (2T4K model) ([4]; inhibitor 0.3 mg/kg i.v.): 0.07±0.01 (16.7) min^−1
DV (Logan) of VPM ([4]; inhibitor 1 mg/kg i.v.): 4.47±1.51 (0.9) ml·ml^−1
DV of VPM (2T4K model) ([4]; inhibitor 1 mg/kg i.v.): 4.49±1.51 (2.9) ml·ml^−1
K1 of VPM (2T4K model) ([4]; inhibitor 1 mg/kg i.v.): 0.57±0.19 (18.1) ml·ml^−1·min^−1
k2 of VPM (2T4K model) ([4]; inhibitor 1 mg/kg i.v.): 0.33±0.10 (78.9) min^−1
k3 of VPM (2T4K model) ([4]; inhibitor 1 mg/kg i.v.): 0.29±0.11 (93.2) min^−1
k4 of VPM (2T4K model) ([4]; inhibitor 1 mg/kg i.v.): 0.19±0.06 (33.3) min^−1
DV (Logan) of VPM ([4]; inhibitor 2 mg/kg i.v.): 11.72±1.47 (0.6) ml·ml^−1
DV of VPM (2T4K model) ([4]; inhibitor 2 mg/kg i.v.): 12.00±1.49 (2.4) ml·ml^−1
K1 of VPM (2T4K model) ([4]; inhibitor 2 mg/kg i.v.): 0.92±0.16 (7.2) ml·ml^−1·min^−1
k2 of VPM (2T4K model) ([4]; inhibitor 2 mg/kg i.v.): 0.18±0.06 (42.2) min^−1
k3 of VPM (2T4K model) ([4]; inhibitor 2 mg/kg i.v.): 0.29±0.09 (68.5) min^−1
k4 of VPM (2T4K model) ([4]; inhibitor 2 mg/kg i.v.): 0.22±0.03 (21.1) min^−1
DV (Logan) of VPM ([4]; inhibitor 5 mg/kg i.v.): 11.16±1.44 (1.1) ml·ml^−1
DV of VPM (2T4K model) ([4]; inhibitor 5 mg/kg i.v.): 11.40±1.45 (3.8) ml·ml^−1
K1 of VPM (2T4K model) ([4]; inhibitor 5 mg/kg i.v.): 0.93±0.26 (17.0) ml·ml^−1·min^−1
k2 of VPM (2T4K model) ([4]; inhibitor 5 mg/kg i.v.): 0.22±0.06 (58.8) min^−1
k3 of VPM (2T4K model) ([4]; inhibitor 5 mg/kg i.v.): 0.28±0.05 (79.7) min^−1
k4 of VPM (2T4K model) ([4]; inhibitor 5 mg/kg i.v.): 0.16±0.01 (35.4) min^−1
DV (Logan) of VPM ([4]; inhibitor 7.5 mg/kg i.v.): 14.20±0.13 (0.4) ml·ml^−1
DV of VPM (2T4K model) ([4]; inhibitor 7.5 mg/kg i.v.): 14.55±0.06 (2.6) ml·ml^−1
K1 of VPM (2T4K model) ([4]; inhibitor 7.5 mg/kg i.v.): 0.98±0.08 (6.4) ml·ml^−1·min^−1
k2 of VPM (2T4K model) ([4]; inhibitor 7.5 mg/kg i.v.): 0.15±0.02 (43.5) min^−1
k3 of VPM (2T4K model) ([4]; inhibitor 7.5 mg/kg i.v.): 0.25±0.07 (55.4) min^−1
k4 of VPM (2T4K model) ([4]; inhibitor 7.5 mg/kg i.v.): 0.22±0.04 (30.3) min^−1
Inhibition of MRPs, such as MRP1 [5]: do not inhibit
